Assay results reported in patent publication US20070093549A1, “Methods for preparation of ladostigil tartrate crystalline form A1” (priority 2005, published 2007).

What was measured:
[1] = system: animal models of Alzheimer's disease; details: background statement with literature references; cited from earlier work
[2] = Exposure of form A1 to various humidity conditions (TGA and crystal form); assay type: physicochemical
Protocol: (§1) X-Ray powder diffraction data were obtained by a SCINTAG powder X-Ray diffractometer model X'TRA equipped with a solid state detector. Copper radiation of 1.5418 Å was used. A round aluminum sample holder with round zero background quartz plate, with cavity of 25 (diameter)*0.5 (depth) mm was used.
TGA analysis was done using a Mettler M3 meter. The weight of the samples was about 10 mg. The samples were scanned at a rate of 10° C./min from 25° C. to 200° C. The oven was constantly purged with nitrogen gas at a flow rate of 40 ml/min. Standard 70 μl alumina crucibles covered by lids with 1 hole were used.
Ladostigil tartrate form A1 was exposed to various humidity conditions at room temperature for 14 days. TGA was performed, and crystal form was analyzed.

[3] = Effect of micronization, pressing and grinding (XRD); assay type: physicochemical; details: pressing 1 minute at 100 metric tons, by XRD
Protocol: as §1
The effects of micronization, pressing (1 minute at 100 metric tons) and grinding were determined by XRD and the following results were obtained: […]

[4] = RH 100%, room temperature, 14 days

Row | Compound | efficacy in animal models of Alzheimer's disease [1] | TGA ([2]; RH 60%, room temperature, 14 days) | TGA ([2]; RH 80%, room temperature, 14 days) | Resulting form [2, 4] | TGA [2, 4] | water content change ([2]; after exposure to 100% RH for 14 days) | hygroscopicity ([2]; concluded from humidity exposure results) | crystallinity after pressing [3]
1 | C#CCN[C@@H]1CCc2ccc(OC(=O)N(C)CC)cc21 [Ladostigil, ethyl-methyl-carbamic acid (R)-3-prop-2-ynylamino-indan-5-yl ester] | effective |  |  |  |  |  |  | 
2 | carbamic acid, ethylmethyl-, (3R)-2,3-dihydro-3-(2-propynylamino)-1H-inden-5-yl ester, (2R,3R)-2,3-dihydroxybutanedioate (2:1) [Ladostigil tartrate form A1] |  | 0.2 | 0.1 | transformed to a mixture of Form A and A1 | 0.1 | did not change significantly | neither Form A nor Form A1 is hygroscopic | lose some extent of crystallinity
